Consider 21 compounds from US20200291018A1, “TAM KINASE INHIBITORS” (SYROS PHARMACEUTICALS, INC., priority 2017, published 2020).

pIC50: −log10 of the molar value.

One experiment has as its target T1, TYRO3 (Homo sapiens, UniProt Q06418).
T1 sequence (Q06418 41-890): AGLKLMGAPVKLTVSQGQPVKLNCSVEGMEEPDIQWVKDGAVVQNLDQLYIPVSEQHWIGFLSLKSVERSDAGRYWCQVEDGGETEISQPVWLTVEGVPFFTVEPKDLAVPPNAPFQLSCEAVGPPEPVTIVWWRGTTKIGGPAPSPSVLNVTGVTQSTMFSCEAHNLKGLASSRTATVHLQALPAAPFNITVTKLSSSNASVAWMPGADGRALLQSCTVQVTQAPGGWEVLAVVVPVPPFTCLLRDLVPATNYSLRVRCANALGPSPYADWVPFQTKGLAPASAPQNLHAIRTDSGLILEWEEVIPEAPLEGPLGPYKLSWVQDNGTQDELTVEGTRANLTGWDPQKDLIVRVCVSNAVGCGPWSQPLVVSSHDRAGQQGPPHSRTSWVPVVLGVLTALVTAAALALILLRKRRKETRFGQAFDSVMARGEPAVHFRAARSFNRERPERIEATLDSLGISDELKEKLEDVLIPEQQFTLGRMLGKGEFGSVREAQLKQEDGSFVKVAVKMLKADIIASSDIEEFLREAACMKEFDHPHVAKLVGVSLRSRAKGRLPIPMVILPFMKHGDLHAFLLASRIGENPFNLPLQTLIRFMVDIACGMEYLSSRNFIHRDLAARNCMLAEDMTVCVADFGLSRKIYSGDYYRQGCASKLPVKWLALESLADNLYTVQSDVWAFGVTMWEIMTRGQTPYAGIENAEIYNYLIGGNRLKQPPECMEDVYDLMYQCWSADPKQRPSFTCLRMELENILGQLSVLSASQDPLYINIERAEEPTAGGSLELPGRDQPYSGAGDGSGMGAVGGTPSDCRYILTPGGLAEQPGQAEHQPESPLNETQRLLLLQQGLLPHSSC
As to the kind of experiment: TR-FRET kinase activity assay, TYRO3. The experiment is classed as biochemical. The settings on record: ATP at Km, 60 minutes. The essentials: (§1)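 Enzyme, fluorescent-labeled peptide substrate and compound were mixed, then ATP was added at each enzyme's Km. Buffer was 50 mM HEPES pH 7.5, 10 mM MgCl2, 1 mM EGTA, 0.01% Brij 35, 1 mM DTT at RT. After 60 min, EDTA quench and 30 min with Eu-anti-phosphotyrosine-site antibody; TR-FRET read gave IC50.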
In general terms: TR-FRET usually uses a lanthanide donor and a delayed reading to cut background.

The next experiment addresses T2, AXL (Homo sapiens, UniProt P30530).
T2 sequence (P30530 26-894): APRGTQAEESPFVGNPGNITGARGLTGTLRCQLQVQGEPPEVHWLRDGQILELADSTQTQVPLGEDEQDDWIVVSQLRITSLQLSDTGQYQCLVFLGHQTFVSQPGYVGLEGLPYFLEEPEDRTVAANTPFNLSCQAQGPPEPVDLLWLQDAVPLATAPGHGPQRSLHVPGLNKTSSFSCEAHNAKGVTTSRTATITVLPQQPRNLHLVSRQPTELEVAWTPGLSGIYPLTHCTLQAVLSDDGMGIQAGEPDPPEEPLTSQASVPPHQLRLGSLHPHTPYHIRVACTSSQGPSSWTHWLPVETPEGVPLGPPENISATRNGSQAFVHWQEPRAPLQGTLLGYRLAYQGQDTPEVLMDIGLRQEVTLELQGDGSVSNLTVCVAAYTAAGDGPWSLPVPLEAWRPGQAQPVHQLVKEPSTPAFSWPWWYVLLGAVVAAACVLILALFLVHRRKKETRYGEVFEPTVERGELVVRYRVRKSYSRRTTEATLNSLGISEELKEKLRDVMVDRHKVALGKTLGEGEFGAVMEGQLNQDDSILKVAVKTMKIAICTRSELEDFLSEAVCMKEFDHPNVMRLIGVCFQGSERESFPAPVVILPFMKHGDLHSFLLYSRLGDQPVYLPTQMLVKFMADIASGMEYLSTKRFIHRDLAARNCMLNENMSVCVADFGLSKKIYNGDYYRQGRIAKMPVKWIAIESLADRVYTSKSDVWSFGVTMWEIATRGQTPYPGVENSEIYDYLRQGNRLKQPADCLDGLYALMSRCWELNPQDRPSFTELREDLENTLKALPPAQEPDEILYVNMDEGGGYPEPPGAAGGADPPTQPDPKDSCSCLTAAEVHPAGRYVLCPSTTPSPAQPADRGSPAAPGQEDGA
As to the kind of experiment: TR-FRET kinase activity assay, AXL. The class given is biochemical. To be noted: ATP at Km, 60 minutes. The essentials: as §1

For `C[C@@H](CCF)Nc1ncc2c(OC3CCOCC3)ncc([C@H]3CC[C@H](O)CC3)c2n1` [Compound 311], the figures for the pIC50 against TYRO3 and on AXL were at least 7.00 and 6.00 to 7.00, respectively.

`COCC[C@H](C)Nc1ncc2c(OC3CCOCC3)ncc([C@H]3CC[C@H](O)CC3)c2n1` [Compound 312]: the pIC50 was 6.00 to 7.00 at TYRO3 and 5.00 to 6.00 on AXL.

For the compound `CC(C)Nc1ncc2c(OC3CCOCC3)ncc(-c3cccc(S(C)(=O)=O)c3)c2n1` [Compound 313], the pIC50 against TYRO3 and against AXL was 6.00 to 7.00 each time.

As to `COC[C@H](C)Nc1ncc2c(OC3CCOCC3)ncc(-c3cnn([C@@H]4CCN(C)C4)c3)c2n1` [Compound 314], the negative-log IC50 (pIC50) against TYRO3 was 6.00 to 7.00; against AXL, 5.00 to 6.00.

As for `COC[C@H](C)Nc1ncc2c(OC3CCOCC3)ncc([C@H]3CC[C@H](NC(C)=O)CC3)c2n1` [Compound 315], the figures for the pIC50 against TYRO3 and against AXL were 6.00 to 7.00 and 5.00 to 6.00, respectively.

Regarding `COC[C@H](C)Nc1ncc2c(OC3CCOCC3)ncc([C@H]3CC[C@H](NS(C)(=O)=O)CC3)c2n1` [Compound 316], the pIC50 at TYRO3 was at least 7.00; at AXL it was 5.00 to 6.00.

For `CNS(=O)(=O)N[C@H]1CC[C@H](c2cnc(OC3CCOCC3)c3cnc(N[C@@H](C)COC)nc32)CC1` [Compound 317], the pIC50 is at least 7.00 on TYRO3 and 5.00 to 6.00 against AXL.

Regarding `CC(C)Nc1ncc2c(OC3CCOCC3)ncc(-c3cccc(S(=O)(=O)C(C)C)c3)c2n1` [Compound 318], the negative-log IC50 (pIC50) on TYRO3 and against AXL was 6.00 to 7.00 in each case.

On to `COC[C@H](C)Nc1ncc2c(OC3CCOCC3)ncc(-c3ccc(CC#N)cc3)c2n1` [Compound 319], for which the pIC50 on TYRO3 and against AXL was 6.00 to 7.00 in each case.

Turning to `COC[C@H](C)Nc1ncc2c(OC3CCOCC3)ncc(-c3cccc(C#N)c3)c2n1` [Compound 320], the figures for the pIC50 against TYRO3 and against AXL were 6.00 to 7.00 and 5.00 to 6.00, respectively.

As for `CC[C@H](C)Nc1ncc2c(O[C@H]3CC[C@H](N)CC3)ncc([C@H]3CC[C@H](O)CC3)c2n1` [Compound 321], the pIC50 on TYRO3 and on AXL was at least 7.00 throughout.

In the case of `CN(C)S(=O)(=O)c1cccc(-c2cnc(OC3CCOCC3)c3cnc(NC4(C)CC4)nc23)c1` [Compound 322], the pIC50 on TYRO3 and at AXL was 6.00 to 7.00 in each case.

As for `CN1C[C@H](Nc2ncc3c(OC4CCOCC4)ncc([C@H]4CC[C@H](O)CC4)c3n2)CC1=O` [Compound 323], the pIC50 on TYRO3 and against AXL was 5.00 to 6.00 in each case.

Take `CN1C[C@@H](Nc2ncc3c(OC4CCOCC4)ncc([C@H]4CC[C@H](O)CC4)c3n2)CC1=O` [Compound 324]: the negative-log IC50 (pIC50) against TYRO3 and on AXL was 5.00 to 6.00 in each case.

Turning to `COC[C@H](C)Nc1ncc2c(OC3CCOCC3)ncc(-c3cccc(C(N)=O)c3)c2n1` [Compound 325], the pIC50 on TYRO3 and at AXL was 5.00 to 6.00 each time.

For `COC[C@H](C)Nc1ncc2c(OC3CCOCC3)ncc([C@H]3CCCNC3)c2n1` [Compound 326], the negative-log IC50 (pIC50) against TYRO3 and on AXL was 6.00 to 7.00 in each case.

As to `COC[C@H](C)Nc1ncc2c(OC3CCOCC3)ncc([C@@H]3CCCNC3)c2n1` [Compound 327], the pIC50 at TYRO3 and against AXL was 5.00 to 6.00 in each case.

`COC[C@H](C)Nc1ncc2c(OC3CCOCC3)ncc(-c3cccc(S(N)(=O)=O)c3)c2n1` [Compound 328]: the pIC50 against TYRO3 was 6.00 to 7.00; at AXL, 5.00 to 6.00.

With `COC[C@H](C)Nc1ncc2c(OC3CCOCC3)ncc([C@H]3CC[C@@](O)(C(F)(F)F)CC3)c2n1` [Compound 329], the negative logarithm of the IC50 (pIC50) at TYRO3 and against AXL was 6.00 to 7.00 in each case.

`COC[C@H](C)Nc1ncc2c(OC3CCOCC3)ncc([C@H]3CC[C@](O)(C(F)(F)F)CC3)c2n1` [Compound 330]: the pIC50 against TYRO3 is 6.00 to 7.00; on AXL, 5.00 to 6.00.

On to `N#Cc1ccc(Nc2ncc3c(OC4CCNCC4)ncc([C@H]4CC[C@H](O)CC4)c3n2)cc1` [Compound 331], for which the negative logarithm of the IC50 (pIC50) against TYRO3 and on AXL was at least 7.00 each time.

In general, pIC50 refers to the negative decadic logarithm of the IC50, by convention in mol/L. A higher pIC50 goes with a small IC50.
